US20090143438A1, “Novel Pyridine Derivative Having Anti-Helicobacter Pylori Activity” (Arigen Pharmaceuticals, Inc., priority 2006, published 2009)
Values after ≈ are worked out from the molar mass of the structure shown. Read-outs that look alike come from different tables or passages of the source.

How the values were obtained:
[1] = test system: H. pylori, ATCC 43504; assay: Antibacterial power test, Columbia agar, MIC; assay type: cell-based, Helicobacter pylori; details: 37° C., pH 7.0, 3 days, read on 4th day; for MIC: Helicobacter pylori, ATCC43504, 72 h, read-out: MIC, in vitro anti-Helicobacter pylori activity
Procedure: An in vitro test was performed in a Columbia agar medium using a standard strain of H. pylori, ATCC 43504. […] Each of the test objects was dissolved in a 1% DMSO solution. Furthermore, as antibiotic control drugs, ampicillin from the penicillin family (control drug 1), gentamycin from the aminoglycoside family (control drug 2), tetracycline from the tetracycline family (control drug 3), and ofloxacin from the new quinolone family (control drug 4) were used.

[2] = test system: Escherichia coli (ATCC 10536); assay: In vitro antibacterial test against various bacteria, MIC; assay type: cell-based; details: 20 to 48 hours
Procedure: (§1) An in vitro antibacterial test for the compounds of Examples 1 to 6 against various bacteria was performed. As gram-negative bacteria, Escherichia coli (ATCC 10536, ATCC 25922), Klebsiella pneumonia (ATCC 10031), Proteus vulgaris (ATCC 13315), Pseudomonas aeruginosa (ATCC 9027), Salmonella typhimurium (ATCC 13311), and as gram-positive bacteria, Staphylococcus aureus, MRSA (ATCC 33591), Staphylococcus epidermidis (ATCC 12228), Streptococcus pneumonia (ATCC 6301), Mycobacterium ranae (ATCC 110) and Enterococcus faecalis (VRE, ATCC 51575) were used. The various bacteria were cultured at 37° C. for 20 to 48 hours by conventional methods, and the minimum inhibitory concentrations (MIC, μg/ml) were determined. Each of the test objects were dissolved in a 1% DMSO solution. Furthermore, as an antibiotic control drug, gentamycin (GEM) from the aminoglycoside family was used.

[3] = test system: Escherichia coli (ATCC 25922); assay: as above; assay type: cell-based; details: 20 to 48 hours
Procedure: as §1

[4] = test system: Klebsiella pneumonia (ATCC 10031); assay: as above; assay type: cell-based; details: 20 to 48 hours
Procedure: as §1

[5] = test system: Mycobacterium ranae (ATCC 110); assay: as above; assay type: cell-based; details: 20 to 48 hours
Procedure: as §1

[6] = test system: Proteus vulgaris (ATCC 13315); assay: as above; assay type: cell-based; details: 20 to 48 hours
Procedure: as §1

[7] = test system: Pseudomonas aeruginosa (ATCC 9027); assay: as above; assay type: cell-based; details: 20 to 48 hours
Procedure: as §1

[8] = test system: Salmonella typhimurium (ATCC 13311); assay: as above; assay type: cell-based; details: 37° C., 20 to 48 hours
Procedure: as §1

[9] = test system: Staphylococcus aureus, MRSA (ATCC 33591); assay: as above; assay type: cell-based; details: 37° C., 20 to 48 hours
Procedure: as §1

[10] = test system: Staphylococcus epidermidis (ATCC 12228); assay: as above; assay type: cell-based; details: 20 to 48 hours
Procedure: as §1

[11] = test system: various gram-negative bacteria and gram-positive bacteria; assay: In vitro antibacterial test against various bacteria, overall statement; assay type: cell-based; details: bacteria of Table 4
Procedure: as §1

[12] = test system: H. pylori NCTC 11637; assay: In vitro MIC test in Columbia agar, standard strain; assay type: cell-based, Helicobacter pylori; details: for MIC: Helicobacter pylori, NCTC11637, 72 h, standard strain NCTC 11637, 37° C., pH 7.0, 3 days
Procedure: (§2) An in vitro test was performed in a Columbia agar medium using standard strains of H. pylori, NCTC 11637 and 11916, clinical isolates PT#1045482, PT#1045483 and PT#1045484, and ofloxacin- and roxithromycin-resistant, clinical isolates TY2, 4 and 5. Each of the test objects was dissolved in a 1% DMSO solution. Furthermore, as antibiotic control drugs, roxithromycin from the macrolide family and ofloxacin from the new quinolone family were used. The strains were cultured at 37° C. and pH 7.0 for 3 days, and on the 4th day, the minimum inhibitory concentrations (MIC, μg/ml) were determined.

[13] = test system: H. pylori NCTC 11916; assay: as above; assay type: cell-based, Helicobacter pylori; details: for MIC: Helicobacter pylori, NCTC11916, 72 h, standard strain NCTC 11916, 37° C., pH 7.0, 3 days
Procedure: as §2

[14] = test system: H. pylori clinical isolate PT#1045482; assay: In vitro MIC test in Columbia agar, clinical isolate; assay type: cell-based; details: Helicobacter pylori, 72 h, 37° C., pH 7.0, 3 days
Procedure: as §2

[15] = test system: H. pylori clinical isolate PT#1045483; assay: as above; assay type: cell-based; details: Helicobacter pylori, 72 h, 37° C., pH 7.0, 3 days
Procedure: as §2

[16] = test system: H. pylori clinical isolate PT#1045484; assay: as above; assay type: cell-based; details: Helicobacter pylori, 72 h, 37° C., pH 7.0, 3 days
Procedure: as §2

[17] = test system: H. pylori ofloxacin- and roxithromycin-resistant clinical isolate TY2; assay: In vitro MIC test in Columbia agar, resistant clinical isolate; assay type: cell-based; details: Helicobacter pylori, 72 h; resistant strain TY2; 37° C., pH 7.0, 3 days
Procedure: as §2

[18] = test system: H. pylori ofloxacin- and roxithromycin-resistant clinical isolate TY4; assay: as above; assay type: cell-based; details: Helicobacter pylori, 72 h; resistant strain TY4; 37° C., pH 7.0, 3 days
Procedure: as §2

[19] = test system: H. pylori ofloxacin- and roxithromycin-resistant clinical isolate TY5; assay: as above; assay type: cell-based; details: Helicobacter pylori, 72 h; resistant strain TY5; 37° C., pH 7.0, 3 days
Procedure: as §2

[20] = test system: Enterococcus faecalis (VRE, ATCC 51575); assay: In vitro antibacterial test against various bacteria, MIC; assay type: cell-based; details: 37° C., 20 to 48 hours
Procedure: as §1

[21] = test system: Streptococcus pneumonia (ATCC 6301); assay: as above; assay type: cell-based; details: Streptococcus pneumoniae, ATCC6301, 37° C., 20 to 48 hours
Procedure: as §1

[22] = ATCC10536, 37° C., read-out: MIC
[23] = ATCC25922, 37° C., read-out: MIC
[24] = Klebsiella pneumoniae, ATCC10031, 37° C., read-out: MIC
[25] = ATCC13315, 37° C., read-out: MIC
[26] = ATCC9027, 37° C., read-out: MIC
[27] = Salmonella enterica, read-out: MIC
[28] = ATCC12228, 37° C., read-out: MIC

Compound | MIC [1] [µg/mL] | MIC [12] [µg/mL] | MIC [13] [µg/mL] | MIC [14] [µg/mL] | MIC [15] [µg/mL] | MIC [16] [µg/mL] | MIC [17] [µg/mL] | MIC [18] [µg/mL] | MIC [19] [µg/mL] | MIC [20] [µg/mL] | MIC [2, 22] [µg/mL] | MIC [3, 23] [µg/mL] | MIC [4, 24] [µg/mL] | MIC ([5]; ATCC110, 37° C., read-out: MIC) [µg/mL] | MIC [6, 25] [µg/mL] | MIC [7, 26] [µg/mL] | MIC [8, 27] [µg/mL] | MIC ([9]; read-out: MIC) [µg/mL] | MIC [10, 28] [µg/mL] | MIC [21] [µg/mL] | further results
gentamycin [Control Drug 2 (Gentamycin), reference compound] | – | – | – | – | – | – | – | – | – | – | – | – | – | – | – | – | – | – | – | – | MIC, in vitro anti-Helicobacter pylori activity [1]: 0.3 µg/mL; MIC ([2]; 37° C.): 0.3 µg/mL; MIC ([3]; 37° C.): 1.0 µg/mL; MIC ([4]; 37° C.): 1.0 µg/mL; MIC ([5]; 37° C.): 0.3 µg/mL; MIC ([6]; 37° C.): 0.3 µg/mL; MIC ([7]; 37° C.): 0.3 µg/mL; MIC [8]: 1.0 µg/mL; MIC [9]: 1.0 µg/mL; MIC ([10]; 37° C.): 0.1 µg/mL; antibacterial action against various gram-negative and gram-positive bacteria (in words) [11]: strong antibacterial action
Cc1c(OCCCCCCCCCCO)ccnc1CSc1nc2ccccc2[nH]1 [Example 6, 2-[{4-(10-hydroxydecyloxy)-3-methylpyridin-2-yl}methylthio]-1H-benzimidazole] | 0.3 (≈ 0.702 µM) | 0.3 (≈ 0.702 µM) | 0.2 (≈ 0.468 µM) | 0.3 (≈ 0.702 µM) | 0.3 (≈ 0.702 µM) | 0.3 (≈ 0.702 µM) | 0.3 (≈ 0.702 µM) | 0.3 (≈ 0.702 µM) | 0.3 (≈ 0.702 µM) | > 100 | > 100 | > 100 | > 100 | > 100 | > 100 | > 100 | > 100 | > 100 | > 100 | > 100 | –
Cc1c(OCCCCCCO)ccnc1CSc1nc2ccccc2[nH]1 [Example 2, 2-[{4-(6-hydroxyhexyloxy)-3-methylpyridin-2-yl}methylthio]-1H-benzimidazole] | 0.1 (≈ 0.269 µM) | 0.1 (≈ 0.269 µM) | 0.1 (≈ 0.269 µM) | 0.1 (≈ 0.269 µM) | 0.1 (≈ 0.269 µM) | 0.3 (≈ 0.808 µM) | 0.3 (≈ 0.808 µM) | 0.1 (≈ 0.269 µM) | 0.1 (≈ 0.269 µM) | > 100 | > 100 | > 100 | > 100 | > 100 | > 100 | > 100 | > 100 | > 100 | > 100 | > 100 | –
Cc1c(OCCCCCCCO)ccnc1CSc1nc2ccccc2[nH]1 [Example 3, 2-[{4-(7-hydroxyheptyloxy)-3-methylpyridin-2-yl}methylthio]-1H-benzimidazole] | 0.1 (≈ 0.259 µM) | 0.1 (≈ 0.259 µM) | 0.1 (≈ 0.259 µM) | 0.1 (≈ 0.259 µM) | 0.1 (≈ 0.259 µM) | 0.1 (≈ 0.259 µM) | 0.1 (≈ 0.259 µM) | 0.1 (≈ 0.259 µM) | 0.1 (≈ 0.259 µM) | > 100 | > 100 | > 100 | > 100 | > 100 | > 100 | > 100 | > 100 | > 100 | > 100 | > 100 | –
Cc1c(OCCCCCCCCCO)ccnc1CSc1nc2ccccc2[nH]1 [Example 5, 2-[{4-(9-hydroxynonyloxy)-3-methylpyridin-2-yl}methylthio]-1H-benzimidazole] | 0.1 (≈ 0.242 µM) | 0.1 (≈ 0.242 µM) | 0.1 (≈ 0.242 µM) | 0.2 (≈ 0.484 µM) | 0.1 (≈ 0.242 µM) | 0.1 (≈ 0.242 µM) | 0.1 (≈ 0.242 µM) | 0.3 (≈ 0.725 µM) | 0.2 (≈ 0.484 µM) | > 100 | > 100 | > 100 | > 100 | > 100 | > 100 | > 100 | > 100 | > 100 | > 100 | > 100 | –
Cc1c(OCCCCCCCCO)ccnc1CSc1nc2ccccc2[nH]1 [Example 4, 2-[{4-(8-hydroxyoctyloxy)-3-methylpyridin-2-yl}methylthio]-1H-benzimidazole] | 0.03 (≈ 0.0751 µM) | 0.03 (≈ 0.0751 µM) | 0.03 (≈ 0.0751 µM) | 0.03 (≈ 0.0751 µM) | 0.03 (≈ 0.0751 µM) | 0.03 (≈ 0.0751 µM) | 0.03 (≈ 0.0751 µM) | 0.1 (≈ 0.25 µM) | 0.03 (≈ 0.0751 µM) | > 100 | > 100 | > 100 | > 100 | > 100 | > 100 | > 100 | > 100 | > 100 | > 100 | > 100 | activity compared to the compounds (e) and (f) ([12]; standard strain NCTC11637): 26.6 fold; activity compared to the compounds (e) and (f) ([13]; standard strain NCTC11916): 52 fold
Cc1c(OCCCCCO)ccnc1CSc1nc2ccccc2[nH]1 [Example 1, 2-[{4-(5-hydroxypentyloxy)-3-methylpyridin-2-yl}methylthio]-1H-benzimidazole] | 0.3 (≈ 0.839 µM) | 0.3 (≈ 0.839 µM) | 0.3 (≈ 0.839 µM) | 0.2 (≈ 0.559 µM) | 0.3 (≈ 0.839 µM) | 0.3 (≈ 0.839 µM) | 0.2 (≈ 0.559 µM) | 0.3 (≈ 0.839 µM) | 0.3 (≈ 0.839 µM) | > 100 | > 100 | > 100 | > 100 | > 100 | > 100 | > 100 | > 100 | > 100 | > 100 | > 100 | –
